From ChEMBL document CHEMBL1123909, “New inhibitors of human renin that contain novel Leu-Val replacements” (J Med Chem, 1987)

How the values were obtained:
Renin [1] = target: T1, Renin (Homo sapiens, UniProt P00797); assay: Inhibition of human renal renin at the pH optimum 6.0.
T1 sequence (P00797 whole entry): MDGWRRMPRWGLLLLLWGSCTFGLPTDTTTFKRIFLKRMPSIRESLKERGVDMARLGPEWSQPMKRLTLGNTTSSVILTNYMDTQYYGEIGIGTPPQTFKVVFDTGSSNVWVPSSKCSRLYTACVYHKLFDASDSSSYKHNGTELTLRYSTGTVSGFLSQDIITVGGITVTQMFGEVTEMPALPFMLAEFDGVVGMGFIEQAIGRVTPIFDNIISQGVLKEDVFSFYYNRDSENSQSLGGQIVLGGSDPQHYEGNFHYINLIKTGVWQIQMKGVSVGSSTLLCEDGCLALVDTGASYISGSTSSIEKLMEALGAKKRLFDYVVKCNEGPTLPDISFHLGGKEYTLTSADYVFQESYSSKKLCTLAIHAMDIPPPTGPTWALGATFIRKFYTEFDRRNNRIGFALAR

Renin (Homo sapiens) [2] = target: T2, Renin (Homo sapiens) (UniProt P00797); assay: Inhibition of human renal renin at the concentration of 10e-5 M.
T2 sequence (whole entry): T1 sequence (P00797 whole entry)

Renin (Homo sapiens) [3] = target: T2, Renin (Homo sapiens); assay: The compound was tested for inhibition of human renal renin at the concentration of 10e-6 M
Pepsin A (Sus scrofa) = Pepsin A (Sus scrofa) (UniProt P00791); assay: Inhibition of porcine pepsin; design: concentration or dose not given beside the values; settings: concentration not given here
Renin [4] = target: T1, Renin; assay: The compound was tested for inhibition of human renal renin at the pH optimum 7.4
Renin (Homo sapiens) [5] = target: T2, Renin (Homo sapiens); assay: The compound was tested for inhibition of human renal renin at the concentration of 10e-5 M (compound with OH epimer)
Renin (Homo sapiens) [6] = target: T2, Renin (Homo sapiens); assay: The compound was tested for inhibition of human renal renin at the concentration of 10e-7 M

Sequence of Pepsin A (Sus scrofa) (P00791 60-385 limits assumed): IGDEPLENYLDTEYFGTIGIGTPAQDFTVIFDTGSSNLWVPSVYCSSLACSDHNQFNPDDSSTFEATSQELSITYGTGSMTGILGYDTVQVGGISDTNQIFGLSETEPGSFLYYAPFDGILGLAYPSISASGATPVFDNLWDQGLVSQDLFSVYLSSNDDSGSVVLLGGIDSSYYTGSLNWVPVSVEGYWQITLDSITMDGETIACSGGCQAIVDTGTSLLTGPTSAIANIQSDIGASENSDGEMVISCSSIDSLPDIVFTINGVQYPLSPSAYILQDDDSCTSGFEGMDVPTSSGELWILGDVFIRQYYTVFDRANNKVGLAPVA

Compound	IC50 (Renin [1])	inhibition (Renin (Homo sapiens) [2])	inhibition (Pepsin A (Sus scrofa))	further results
CC(C)C[C@@H](NC(=O)[C@H](C)NC(=O)[C@H](Cc1ccccc1)NC(=O)OC(C)(C)C)[C@H](O)CSCCc1ccccc1	4500 nM	73%	–	–
CC(C)CC[C@@H](O)[C@@H](CC(C)C)NC(=O)[C@H](Cc1c[nH]cn1)NC(=O)[C@H](Cc1cccc2ccccc12)NC(=O)OC(C)(C)C	–	–	6%	inhibition (Renin (Homo sapiens) [3]): 93%; IC50 (Renin [4]): 150 nM
CC(C)C[C@H](NC(=O)[C@H](Cc1c[nH]cn1)NC(=O)[C@H](Cc1ccccc1)NC(=O)OC(C)(C)C)[C@@H](O)CSC1CCCCC1 (stereo in doubt; 56) [listing 1 of 2 here]	–	–	–	inhibition (Renin (Homo sapiens) [5]): 95%
CC(C)CC[C@@H](O)[C@H](CC(C)C)NC(=O)[C@H](C)NC(=O)[C@H](Cc1ccccc1)NC(=O)OC(C)(C)C	–	–	–	inhibition (Renin (Homo sapiens) [5]): 16%
CC(C)C[C@@H](NC(=O)[C@H](Cc1c[nH]cn1)NC(=O)[C@H](Cc1ccccc1)NC(=O)OC(C)(C)C)[C@H](O)CNC(C)C	–	35%	–	–
CC(C)C[C@@H](NC(=O)[C@H](C)NC(=O)[C@H](Cc1ccccc1)NC(=O)OC(C)(C)C)[C@H](O)CSC1CCCC1	1000 nM	94%	–	–
CC(C)C[C@@H](NC(=O)[C@H](Cc1c[nH]cn1)NC(=O)[C@H](Cc1cccc2ccccc12)NC(=O)OC(C)(C)C)[C@H](O)CSC1CCCCC1	13 nM	–	–	inhibition (Renin (Homo sapiens) [6]): 85%
CC(C)C[C@@H](NC(=O)[C@H](Cc1c[nH]cn1)NC(=O)[C@H](Cc1ccccc1)NC(=O)OC(C)(C)C)[C@H](O)CSc1ccccc1	960 nM	96%	0%	–
CC(C)C[C@@H](NC(=O)[C@H](Cc1c[nH]cn1)NC(=O)[C@H](Cc1ccc2ccccc2c1)NC(=O)OC(C)(C)C)[C@H](O)CSC1CCCCC1	–	–	0%	inhibition (Renin (Homo sapiens) [6]): 85%; IC50 (Renin [4]): 40 nM
CC(C)CC[C@@H](O)[C@@H](CC(C)C)NC(=O)[C@H](Cc1c[nH]cn1)NC(=O)[C@H](Cc1ccccc1)NC(=O)OC(C)(C)C	1500 nM	89%	–	–
CC(C)C[C@@H](NC(=O)[C@H](C)NC(=O)[C@H](Cc1ccccc1)NC(=O)OC(C)(C)C)[C@H](O)CSCCCc1ccccc1	1000 nM	88%	74%	–
CC(C)C[C@@H](NC(=O)[C@H](Cc1ccc(O)cc1)NC(=O)[C@H](Cc1ccccc1)NC(=O)OC(C)(C)C)[C@H](O)CSc1ccccc1	–	21%	11%	–
CC(C)C[C@@H](NC(=O)[C@H](Cc1ccccc1)NC(=O)[C@H](Cc1ccccc1)NC(=O)OC(C)(C)C)[C@H](O)CSc1ccccc1	–	48%	11%	–
CC(C)C[C@@H](NC(=O)[C@H](Cc1c[nH]cn1)NC(=O)[C@H](Cc1ccccc1)NC(=O)OC(C)(C)C)[C@H](O)COC(C)C	1500 nM	85%	0%	–
CC(C)C[C@H](NC(=O)[C@H](Cc1c[nH]cn1)NC(=O)[C@H](Cc1ccccc1)NC(=O)OC(C)(C)C)[C@@H](O)CSC1CCCCC1 (stereo in doubt; 55)	35 nM	–	–	–
CC(C)C[C@@H](NC(=O)[C@H](Cc1c[nH]cn1)NC(=O)[C@H](Cc1ccccc1)NC(=O)OC(C)(C)C)[C@H](O)CS(=O)(=O)CC(C)C	–	98%	–	IC50 (Renin [4]): 350 nM
CC(C)CC[C@H](O)[C@H](CC(C)C)NC(=O)[C@H](C)NC(=O)[C@H](Cc1ccccc1)NC(=O)OC(C)(C)C	2000 nM	85%	–	–
CC(C)C[C@@H](NC(=O)[C@H](C)NC(=O)[C@H](Cc1ccccc1)NC(=O)OC(C)(C)C)[C@H](O)CSc1ccccc1	8000 nM	56%	–	–
CC(C)C[C@@H](NC(=O)[C@H](C)NC(=O)[C@H](Cc1ccccc1)NC(=O)OC(C)(C)C)[C@H](O)CSc1ccc(C(C)(C)C)cc1	–	15%	–	–
CC(C)C[C@@H](NC(=O)[C@H](C)NC(=O)[C@H](Cc1ccccc1)NC(=O)OC(C)(C)C)[C@H](O)CSC1CCCCC1	800 nM	94%	100%	–
CC(C)C[C@H](NC(=O)[C@H](Cc1c[nH]cn1)NC(=O)[C@H](Cc1ccccc1)NC(=O)OC(C)(C)C)[C@@H](O)CSC1CCCCC1 (stereo in doubt; 56) [listing 2 of 2 here]	520 nM	–	–	–
CC(C)C[C@H](NC(=O)[C@H](C)NC(=O)[C@H](Cc1ccccc1)NC(=O)OC(C)(C)C)[C@@H](O)CSC(C)C	700 nM	90%	73%	–
CC(C)C[C@@H](NC(=O)[C@H](C)NC(=O)[C@H](Cc1ccccc1)NC(=O)OC(C)(C)C)[C@H](O)C[S+]([O-])C1CCCCC1 (some centres undefined)	–	46%	–	–
CC(C)CCC[C@@H](O)[C@@H](CC(C)C)NC(=O)[C@H](Cc1c[nH]cn1)NC(=O)[C@H](Cc1ccccc1)NC(=O)OC(C)(C)C	600 nM	97%	–	–
CC(C)C[C@@H](NC(=O)[C@H](C)NC(=O)[C@H](Cc1ccccc1)NC(=O)OC(C)(C)C)[C@H](O)CNc1ccccc1	–	30%	–	–
